Where two headings read alike, the source gives them in different places.
Legend:
Type in all cases: cell-based
A. baumannii = experiment: MIC broth microdilution (CLSI); conditions: Acinetobacter baumannii
Experimental: (§1) Minimum inhibitory concentrations for representative example compounds herein were determined by a broth microdilution method in accordance with the Clinical and Laboratory Standards Institute (CLSI) guidelines. In brief, organism suspensions were adjusted to a 0.5 McFarland standard to yield a final inoculum between 3×10^5 and 7×10^5 colony-forming units (CFU)/mL. The inoculum was prepared by suspension of a colony from an agar plate that was prepared the previous day. Compound dilutions and inoculum were prepared in sterile, cation adjusted Mueller-Hinton Broth (Beckton Dickinson).
(§2) Bacteria were suspended in sterile saline and added to each assay plate to obtain a final concentration of 5×10^5 CFU/mL. An inoculum volume of 100 μL was added to wells containing 100 μL of broth with 2-fold serial dilutions of the test compound. All inoculated microdilution trays were incubated in ambient air at 35° C. for 18-24 hours. Following incubation, the lowest concentration of the compound that prevented visible growth (OD 600 nm<0.05) is recorded was the MIC. […] Performance of the assay was monitored by the use of laboratory quality-control strains and a standard compound with a defined MIC spectrum (neomycin), in accordance with CLSI guidelines.

E. coli = experiment: MIC broth microdilution (CLSI); conditions: Escherichia coli
Experimental: as §1, §2

P. aeruginosa [1] = experiment: MIC broth microdilution (CLSI); conditions: Pseudomonas aeruginosa
Experimental: as §1, §2

[2] = tested on: A. baumannii-calcoaceticus; experiment: Antibacterial surveillance of clinical isolates (MIC50/90); conditions: 100 isolates
Experimental: as §1, §2
(§3) Several compounds of the disclosure (Compound 1, 2, and 3) were further evaluated against several hundred bacterial isolates (isolated in the United States and Europe, 1:1) selected from the SENTRY Antimicrobial Surveillance Program (JMI Laboratories, North Liberty, Iowa). The set of clinical isolates included 300 randomly selected Enterobacterales, 103 randomly selected P. aeruginosa, 100 randomly selected A. baumannii-calcoaceticus, 20 randomly selected Methicillin-sensitive S. aureus (MSSA), and 30 randomly selected Methicillin-resistant S. aureus (MRSA). In addition, 101 Enterobacterales and 50 P. aeruginosa isolates with genetically defined mechanisms of aminoglycoside resistance were included. The MIC values at which ≥50% (MIC50) and ≥90% (MIC90) of isolates within a given set are inhibited were determined for each compound against each set of organisms.

[3] = tested on: AG-resistant Enterobacterales; experiment: as above; conditions: 101 isolates with defined aminoglycoside resistance
Experimental: as §1, §2, §3

[4] = tested on: AG-resistant P. aeruginosa; experiment: as above; conditions: 50 isolates with defined aminoglycoside resistance
Experimental: as §1, §2, §3

[5] = tested on: Methicillin-resistant S. aureus (MRSA); experiment: as above; conditions: 30 isolates
Experimental: as §1, §2, §3

[6] = tested on: Methicillin-sensitive S. aureus (MSSA); experiment: as above; conditions: 20 isolates
Experimental: as §1, §2, §3

P. aeruginosa [7] = experiment: as above; conditions: 103 isolates
Experimental: as §1, §2, §3

[8] = read-out: Activity (MIC), strain NABA0007, ΔadeJK efflux
[9] = strain NABA0006, WT parent, read-out: Activity (MIC)
[10] = strain NABA0020, AME negative strain, read-out: Activity (MIC)
[11] = read-out: Activity (MIC), strain NECO0003, ΔtolC
[12] = read-out: Activity (MIC), strain NECO0245, ArmA
[13] = strain NECO0001, WT QC, read-out: Activity (MIC)
[14] = strain NECO0002, WT, read-out: Activity (MIC)
[15] = strain NECO0243, empty vector, read-out: Activity (MIC)
[16] = strain NECO0244, AAC(6')-Ib, read-out: Activity (MIC)
[17] = strain NECO0289, APH(3')-Ia, read-out: Activity (MIC)
[18] = strain NECO0302, AAC(3)-IIa, read-out: Activity (MIC)
[19] = strain NECO0350, AAC(2')-I, read-out: Activity (MIC)
[20] = strain NECO0359, ANT(4')-Ia, read-out: Activity (MIC)
[21] = read-out: Activity (MIC), strain NPAE0006, Efflux KO, Aph(3')-IIb
[22] = read-out: Activity (MIC), strain NPAE0010, MexXY over-expressed, Aph(3')-IIb
[23] = strain NPAE0001, WT Aph(3')-IIb, QC, read-out: Activity (MIC)
[24] = strain NPAE0002, WT Aph(3')-IIb, read-out: Activity (MIC)
[25] = strain NPAE0359, aph(3')-IIb KO (tetR), read-out: Activity (MIC)

C[C@@H](N)[C@@H]1CC[C@@H](N)[C@@H](O[C@@H]2[C@@H](N)[C@H](O)[C@@H](NC(=O)[C@@H](O)CCN)[C@H](O)[C@H]2O[C@@H]2O[C@H](CO)[C@@H](O[C@H]3O[C@@H](CN)[C@@H](O)[C@H](O)[C@H]3N)[C@H]2O)O1 [Compound 5, (S)-4-Amino-N-((1R,2S,3S,4R,5R,6S)-3-Amino-4-(((2R,3R,6S)-3-Amino-6-((R)-1-Aminoethyl)Tetrahydro-2H-Pyran-2-Yl)Oxy)-5-(((2S,3R,4S,5R)-4-(((2R,3R,4R,5S,6S)-3-Amino-6-(Aminomethyl)-4,5-Dihydroxytetrahydro-2H-Pyran-2-Yl)Oxy)-3-Hydroxy-5-(Hydroxymethyl)Tetrahydrofuran-2-Yl)Oxy)-2,6-Dihydroxycyclohexyl)-2-Hydroxybutanamide]
MIC (A. baumannii; [8]): < 16 µg/mL | MIC (A. baumannii; [9]): < 16 µg/mL | MIC (A. baumannii; [10]): < 16 µg/mL | MIC (E. coli; [11]): < 16 µg/mL | MIC (E. coli; [12]): < 16 µg/mL | MIC (E. coli; [13]): < 16 µg/mL | MIC (E. coli; [14]): < 16 µg/mL | MIC (E. coli; [15]): < 16 µg/mL | MIC (E. coli; [16]): < 16 µg/mL | MIC (E. coli; [17]): < 16 µg/mL | MIC (E. coli; [18]): < 16 µg/mL | MIC (E. coli; [19]): < 16 µg/mL | MIC (E. coli; [20]): < 16 µg/mL | MIC (P. aeruginosa [1]; [21]): < 16 µg/mL | MIC (P. aeruginosa [1]; [22]): < 16 µg/mL | MIC (P. aeruginosa [1]; [23]): < 16 µg/mL | MIC (P. aeruginosa [1]; [24]): < 16 µg/mL | MIC (P. aeruginosa [1]; [25]): < 16 µg/mL

gentamicin [reference compound]
MIC50 [2]: + (+ = MIC50 or MIC90 ≤ 16 μg/mL) | MIC90 [2]: − (− = MIC50 or MIC90 > 16 μg/mL) | MIC50 [3]: −/− (− = MIC50 or MIC90 > 16 μg/mL) | MIC90 [3]: −/− (− = MIC50 or MIC90 > 16 μg/mL) | MIC50 [4]: + (+ = MIC50 or MIC90 ≤ 16 μg/mL) | MIC90 [4]: − (− = MIC50 or MIC90 > 16 μg/mL) | MIC50 [5]: +/+ (+ = MIC50 or MIC90 ≤ 16 μg/mL) | MIC90 [5]: +/+ (+ = MIC50 or MIC90 ≤ 16 μg/mL) | MIC50 [6]: +/+ (+ = MIC50 or MIC90 ≤ 16 μg/mL) | MIC90 [6]: +/+ (+ = MIC50 or MIC90 ≤ 16 μg/mL) | MIC50 (P. aeruginosa [7]): +/+ (+ = MIC50 or MIC90 ≤ 16 μg/mL) | MIC90 (P. aeruginosa [7]): +/+ (+ = MIC50 or MIC90 ≤ 16 μg/mL)

CN[C@@H](C)[C@@H]1CC[C@@H](N)[C@@H](O[C@@H]2[C@@H](N)[C@H](O)[C@@H](NC(=O)[C@@H](O)[C@H](F)CN)[C@H](O)[C@H]2O[C@@H]2O[C@H](CO)[C@@H](O[C@H]3O[C@@H](CN)[C@@H](O)[C@H](O)[C@H]3N)[C@H]2O)O1 [Compound 7, (2R,3R)-4-amino-N-((1R,2S,3S,4R,5R,6S)-3-amino-4-(((2R,3R,6S)-3-amino-6-((S)-1-(methylamino)ethyl)tetrahydro-2H-pyran-2-yl)oxy)-5-(((2S,3R,4S,5R)-4-(((2R,3R,4R,5S,6S)-3-amino-6-(aminomethyl)-4,5-dihydroxytetrahydro-2H-pyran-2-yl)oxy)-3-hydroxy-5-(hydroxymethyl)tetrahydrofuran-2-yl)oxy)-2,6-dihydroxycyclohexyl)-3-fluoro-2-hydroxybutanamide]
MIC (A. baumannii; [8]): < 16 µg/mL | MIC (A. baumannii; [9]): < 16 µg/mL | MIC (A. baumannii; [10]): < 16 µg/mL | MIC (E. coli; [11]): < 16 µg/mL | MIC (E. coli; [12]): < 16 µg/mL | MIC (E. coli; [13]): < 16 µg/mL | MIC (E. coli; [14]): < 16 µg/mL | MIC (E. coli; [15]): < 16 µg/mL | MIC (E. coli; [16]): < 16 µg/mL | MIC (E. coli; [17]): > 16 µg/mL | MIC (E. coli; [18]): < 16 µg/mL | MIC (E. coli; [19]): < 16 µg/mL | MIC (E. coli; [20]): < 16 µg/mL | MIC (P. aeruginosa [1]; [21]): < 16 µg/mL | MIC (P. aeruginosa [1]; [22]): > 16 µg/mL | MIC (P. aeruginosa [1]; [23]): < 16 µg/mL | MIC (P. aeruginosa [1]; [24]): < 16 µg/mL | MIC (P. aeruginosa [1]; [25]): < 16 µg/mL

C[C@@H](N)[C@@H]1CC[C@@H](N)[C@@H](O[C@@H]2[C@@H](N)[C@H](O)[C@@H](NC(=O)[C@@H](O)[C@H](F)CN)[C@H](O)[C@H]2O[C@@H]2O[C@H](CO)[C@@H](O[C@H]3O[C@@H](CN)[C@@H](O)[C@H](O)[C@H]3N)[C@H]2O)O1 [Compound 4, (2R,3R)-4-amino-N-((1R,2S,3S,4R,5R,6S)-3-amino-4-(((2R,3R,6S)-3-amino-6-((R)-1-aminoethyl)tetrahydro-2H-pyran-2-yl)oxy)-5-(((2S,3R,4S,5R)-4-(((2R,3R,4R,5S,6S)-3-amino-6-(aminomethyl)-4,5-dihydroxytetrahydro-2H-pyran-2-yl)oxy)-3-hydroxy-5-(hydroxymethyl)tetrahydrofuran-2-yl)oxy)-2,6-dihydroxycyclohexyl)-3-fluoro-2-hydroxybutanamide]
MIC (A. baumannii; [8]): < 16 µg/mL | MIC (A. baumannii; [9]): < 16 µg/mL | MIC (A. baumannii; [10]): < 16 µg/mL | MIC (E. coli; [11]): < 16 µg/mL | MIC (E. coli; [12]): < 16 µg/mL | MIC (E. coli; [13]): < 16 µg/mL | MIC (E. coli; [14]): < 16 µg/mL | MIC (E. coli; [15]): < 16 µg/mL | MIC (E. coli; [16]): < 16 µg/mL | MIC (E. coli; [17]): < 16 µg/mL | MIC (E. coli; [18]): < 16 µg/mL | MIC (E. coli; [19]): < 16 µg/mL | MIC (E. coli; [20]): < 16 µg/mL | MIC (P. aeruginosa [1]; [21]): < 16 µg/mL | MIC (P. aeruginosa [1]; [22]): < 16 µg/mL | MIC (P. aeruginosa [1]; [23]): < 16 µg/mL | MIC (P. aeruginosa [1]; [24]): < 16 µg/mL | MIC (P. aeruginosa [1]; [25]): < 16 µg/mL

C[C@H](N)[C@@H]1CC[C@@H](N)[C@@H](O[C@@H]2[C@@H](N)[C@H](O)[C@@H](N)[C@H](O)[C@H]2O[C@@H]2O[C@H](CO)[C@@H](O[C@H]3O[C@@H](CN)[C@@H](O)[C@H](O)[C@H]3N)[C@H]2O)O1 [Compound 8, (2S,3S,4R,5R,6R)-5-amino-2-(aminomethyl)-6-(((2R,3S,4R,5S)-5-(((1R,2R,3S,4R,5R,6S)-3,5-diamino-2-(((2R,3R,6S)-3-amino-6-((S)-1-aminoethyl)tetrahydro-2H-pyran-2-yl)oxy)-4,6-dihydroxycyclohexyl)oxy)-4-hydroxy-2-(hydroxymethyl)tetrahydrofuran-3-yl)oxy)tetrahydro-2H-pyran-3,4-diol]
MIC (A. baumannii; [8]): < 16 µg/mL | MIC (A. baumannii; [9]): < 16 µg/mL | MIC (A. baumannii; [10]): > 16 µg/mL | MIC (E. coli; [11]): < 16 µg/mL | MIC (E. coli; [12]): < 16 µg/mL | MIC (E. coli; [13]): < 16 µg/mL | MIC (E. coli; [14]): < 16 µg/mL | MIC (E. coli; [15]): < 16 µg/mL | MIC (E. coli; [16]): < 16 µg/mL | MIC (E. coli; [17]): > 16 µg/mL | MIC (E. coli; [18]): < 16 µg/mL | MIC (E. coli; [19]): < 16 µg/mL | MIC (E. coli; [20]): < 16 µg/mL | MIC (P. aeruginosa [1]; [21]): < 16 µg/mL | MIC (P. aeruginosa [1]; [22]): < 16 µg/mL | MIC (P. aeruginosa [1]; [23]): < 16 µg/mL | MIC (P. aeruginosa [1]; [24]): < 16 µg/mL | MIC (P. aeruginosa [1]; [25]): < 16 µg/mL
